In ChEMBL document CHEMBL5385903, “The activity and mechanism of vidofludimus as a potent enzyme inhibitor against NDM-1-positive E. coli” (Eur J Med Chem, 2023):
Converted amounts (≈) assume the structure as drawn. The source made the active and inactive calls. No cut-off for these calls is given here.

Legend:
[1] = biological target: Metallo-beta-lactamase type 2 (Bacteria, UniProt C7C422); experiment: Inhibition of Metallo-beta-lactamase NDM-1 (unknown origin) using nitrocefin as substrate incubated for 5 to 10 mins by spectramax reader analysis
Escherichia coli [2] = experiment: Antibacterial activity against NDM-1 producing Escherichia coli assessed as inhibition of bacterial growth incubated overnight by broth microdilution assay; assay type: functional
Escherichia coli [3] = experiment: Antibacterial activity against NDM-1 producing Escherichia coli assessed as inhibition of bacterial growth at 4 ug/ml incubated for 5 hrs by time-kill assay; assay type: functional, organism-based; details: dose 4.0 µg/ml
Escherichia coli [4] = experiment: Antibacterial activity in NDM-1 producing Escherichia coli infected in BALB/c mouse assessed as increase in animal survival rate at 10 mg/kg,SC administrated upto 120 hrs for every 12 hrs interval; assay type: functional
Escherichia coli [5] = experiment: Antibacterial activity in NDM-1 producing Escherichia coli infected in BALB/c mouse assessed as reduction of bacterial burden in liver at 10 mg/kg,SC administration measured after 96 hrs of post-infection; assay type: functional, organism-based
Escherichia coli [6] = experiment: Antibacterial activity in NDM-1 producing Escherichia coli infected in BALB/c mouse assessed as reduction of bacterial burden in spleen at 10 mg/kg,SC administration measured after 96 hrs of post-infection; assay type: functional, organism-based
Escherichia coli [7] = experiment: Antibacterial activity in NDM-1 producing Escherichia coli infected in BALB/c mouse assessed as reduction of bacterial burden in small intestine at 10 mg/kg,SC administration measured after 96 hrs of post-infection; assay type: functional, organism-based
Escherichia coli [8] = experiment: Antibacterial activity in NDM-1 producing Escherichia coli infected in BALB/c mouse assessed as decrease in pathological damage in liver at 10 mg/kg,SC administration measured after 96 hrs of post-infection by hematoxylin and eosin staining based assay; assay type: functional, organism-based
Escherichia coli [9] = experiment: Antibacterial activity in NDM-1 producing Escherichia coli infected in BALB/c mouse assessed as decrease in pathological damage in spleen at 10 mg/kg,SC administration measured after 96 hrs of post-infection by hematoxylin and eosin staining based assay; assay type: functional, organism-based
Escherichia coli [10] = experiment: Antibacterial activity in NDM-1 producing Escherichia coli infected in BALB/c mouse assessed as decrease in pathological damage in small intestine at 10 mg/kg,SC administration measured after 96 hrs of post-infection by hematoxylin and eosin staining based assay; assay type: functional, organism-based
Escherichia coli [11] = experiment: Synergistic antibacterial activity against NDM-1 producing Escherichia coli assessed as inhibition of bacterial growth incubated overnight in presence of meropenem by broth microdilution assay; assay type: functional
Escherichia coli [12] = experiment: Synergistic antibacterial activity against NDM-1 producing Escherichia coli assessed as inhibition of bacterial growth by measuring meropenem MIC incubated overnight in presence of meropenem by broth microdilution assay; assay type: functional
Escherichia coli [13] = experiment: Synergistic antibacterial activity against NDM-1 producing Escherichia coli assessed as fractional inhibitory concentration index in presence of meropenem by checkerboard broth microdilution assay; assay type: functional
Beta-lactamase NDM-1 [14] = biological target: T1, Beta-lactamase NDM-1 (Escherichia coli, UniProt E5KIY2); experiment: Inhibition of Escherichia coli NDM-1 expressed in Escherichia coli BL21 (DE3) using nitrocefin as substrate by microplate reader analysis
[15] = biological target: Beta-lactamase NDM-1 (Escherichia coli) (UniProt E5KIY2); experiment: Inhibition of Escherichia coli NDM-1 expressed in Escherichia coli BL21 (DE3) using nitrocefin as substrate at 10 ug/ml by microplate reader analysis relative to control; details: dose 10.0 µg/ml
Escherichia coli [16] = experiment: Antibacterial activity against NDM-1 producing Escherichia coli assessed as inhibition of bacterial growth at 2 to 512 ug/ml incubated overnight by broth microdilution assay; assay type: functional, organism-based; details: dose 2-512 µg/ml
Escherichia coli [17] = experiment: Antibacterial activity against NDM-1 producing Escherichia coli assessed as inhibition of bacterial growth at 64 ug/ml incubated for 5 hrs by time-kill assay; assay type: functional, organism-based; details: dose 64.0 µg/ml
Escherichia coli [18] = experiment: Antibacterial activity in NDM-1 producing Escherichia coli infected in BALB/c mouse assessed as increase in animal survival rate at 10 mg/kg,IG administrated upto 120 hrs for every 12 hrs interval; assay type: functional; details: po
Escherichia coli [19] = experiment: Synergistic antibacterial activity in NDM-1 producing Escherichia coli infected in BALB/c mouse assessed as increase in animal survival rate at 10 mg/kg,IG administrated with meropenem by subcutaneous injection upto 120 hrs for every 12 hrs interval; assay type: functional
Escherichia coli [20] = experiment: Antibacterial activity in NDM-1 producing Escherichia coli infected in BALB/c mouse assessed as effect on white blood cell count at 10 mg/kg,IG administration measured after 96 hrs of post-infection; assay type: functional, organism-based
Escherichia coli [21] = experiment: Antibacterial activity in NDM-1 producing Escherichia coli infected in BALB/c mouse assessed as decrease in TNF-alpha level at 10 mg/kg,IG administration measured after 96 hrs of post-infection by ELISA; assay type: functional, organism-based
Escherichia coli [22] = experiment: Antibacterial activity in NDM-1 producing Escherichia coli infected in BALB/c mouse assessed as decrease in IL-1beta level at 10 mg/kg,IG administration measured after 96 hrs of post-infection by ELISA; assay type: functional, organism-based
Escherichia coli [23] = experiment: Antibacterial activity in NDM-1 producing Escherichia coli infected in BALB/c mouse assessed as decrease in IFN-gamma level at 10 mg/kg,IG administration measured after 96 hrs of post-infection by ELISA; assay type: functional, organism-based
Escherichia coli [24] = experiment: Antibacterial activity in NDM-1 producing Escherichia coli infected in BALB/c mouse assessed as decrease in pathological damage in liver at 10 mg/kg,IG administration measured after 96 hrs of post-infection by hematoxylin and eosin staining based assay; assay type: functional, organism-based
Escherichia coli [25] = experiment: Antibacterial activity in NDM-1 producing Escherichia coli infected in BALB/c mouse assessed as decrease in pathological damage in spleen at 10 mg/kg,IG administration measured after 96 hrs of post-infection by hematoxylin and eosin staining based assay; assay type: functional, organism-based
Escherichia coli [26] = experiment: Antibacterial activity in NDM-1 producing Escherichia coli infected in BALB/c mouse assessed as decrease in pathological damage in small intestine at 10 mg/kg,IG administration measured after 96 hrs of post-infection by hematoxylin and eosin staining based assay; assay type: functional, organism-based
[27] = biological target: Beta-lactamase NDM-1 (Escherichia coli) (UniProt E5KIY2); experiment: Inhibition of Escherichia coli NDM-1 assessed as effect on NDM-1 protein expression at 64 ug/ml incubated for 12 hrs by Western blotting analysis; details: dose 64.0 µg/ml
[28] = biological target: Beta-lactamase NDM-1 (Escherichia coli) (UniProt E5KIY2); experiment: Binding affinity to Escherichia coli NDM-1 assessed as melting temperature at 64 ug/ml incubated for 18 hrs by CD spectroscopy; details: dose 64.0 µg/ml
[29] = biological target: Beta-lactamase NDM-1 (Escherichia coli) (UniProt E5KIY2); experiment: Inhibition of Escherichia coli recombinant wild type NDM-1 expressed in Escherichia coli BL21 (DE3) incubated for 10 mins
[30] = biological target: Beta-lactamase NDM-1 (Escherichia coli) (UniProt E5KIY2); experiment: Inhibition of Escherichia coli recombinant wild type NDM-1 expressed in Escherichia coli BL21 (DE3) at 4 to 128 ug/ml incubated for 10 mins relative to control; details: dose 4-128 µg/ml
[31] = test system: Beta-lactamase NDM-1 (Escherichia coli), E5KIY2 [UNDEFINED MUTATION]; experiment: Inhibition of Escherichia coli recombinant NDM-1 mutant expressed in Escherichia coli BL21 (DE3) at 4 to 128 ug/ml incubated for 10 mins; details: dose 4-128 µg/ml
Beta-lactamase NDM-1 [32] = biological target: T1, Beta-lactamase NDM-1; experiment: Binding affinity to Escherichia coli NDM-1 assessed as equilibrium dissociation constant measured for 60 sec by bio-layer interferometry analysis
[33] = biological target: Beta-lactamase NDM-1 (Escherichia coli) (UniProt E5KIY2); experiment: Binding affinity to Escherichia coli NDM-1 by bio-layer interferometry analysis

SMILES: N[C@@H](CN[C@@H](CN[C@@H](CC(=O)O)C(=O)O)C(=O)O)C(=O)O
- IC50 [1]: 4.1 µM

SMILES: C[C@@H](O)[C@H]1C(=O)N2C(C(=O)O)=C(S[C@@H]3CN[C@H](C(=O)N(C)C)C3)[C@H](C)[C@H]12 [MEROPENEM]
- MIC (Escherichia coli [2]): 64 µg/mL (≈ 167 µM)
- Activity (Escherichia coli [3]): inactive
- survival at 10 mg/kg (Escherichia coli [4]): 40%
- Activity (Escherichia coli [5]): Active
- Activity (Escherichia coli [6]): Active
- Activity (Escherichia coli [7]): Active
- Activity (Escherichia coli [8]): Active
- Activity (Escherichia coli [9]): Active
- Activity (Escherichia coli [10]): Active

SMILES: COc1cccc(-c2ccc(NC(=O)C3=C(C(=O)O)CCC3)c(F)c2)c1 [VIDOFLUDIMUS]
- MIC (Escherichia coli [2]): 1020 µg/mL (≈ 2880 µM)
- MIC (Escherichia coli [11]): 64 µg/mL
- MIC (Escherichia coli [12]): 4 µg/mL
- fractional inhibitory concentration index (FICI) (Escherichia coli [13]): 0.125
- IC50 (Beta-lactamase NDM-1 [14]): 13.8 µM
- inhibition [15]: 93.3%
- Activity (Escherichia coli [16]): inactive
- Activity (Escherichia coli [17]): inactive
- survival at 10 mg/kg (Escherichia coli [18]): 10%
- survival at 10 mg/kg (Escherichia coli [19]): 90%
- Activity (Escherichia coli [20]): inactive
- Activity (Escherichia coli [21]): inactive
- Activity (Escherichia coli [22]): inactive
- Activity (Escherichia coli [23]): inactive
- Activity (Escherichia coli [24]): inactive
- Activity (Escherichia coli [25]): inactive
- Activity (Escherichia coli [26]): inactive
- inhibition [27]: inactive
- Tm [28]: 58 °C
- inhibition [29]: Dose-Dependent Effect
- inhibition [30]: 14.9%
- inhibition [31]: inactive
- Kd (Beta-lactamase NDM-1 [32]): 0.337 µM
- Activity [33]: Dose-Dependent Effect
